The assay relates to T cells isolated from mouse spleens. The assay can be described thus: T cell proliferation inhibition (CFSE flow cytometry, anti-CD3/anti-CD28 stimulation). The format is cell-based. Conditions: mouse spleen T cells, 3 days; for inhibition at 0.01 µM / inhibition at 0.1 µM / inhibition at 1 µM / inhibition at 10 µM / inhibition at 30 µM / inhibition at 50 µM: Mus musculus, T-cell, 72 h, read-out: Proliferation inhibition rate (%). The procedure, abridged: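 Splenic T cells from 7-week-old C57BL/6 mice were MACS-isolated, CFSE-labelled, seeded at 2×10^5 cells/well and activated with anti-CD3/anti-CD28 (0.5 μg/mL each). Compound at 10 nM–50 μM (six levels, triplicate) was present for 3 days at 37 °C before flow cytometric readout of proliferation inhibition rate.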

The source of these data is patent US20260183274A1, “PDK1 REGULATORY COMPOUND AND COMPOSITION CONTAINING THE SAME” (PROVIBIO CO., LTD., priority 2024, published 2026).

Take `CN1CCN(CCCCCCCCCCCCNC(=O)c2ccc(C(F)(F)F)cc2N)CC1` [Compound 213, 2-Amino-N-(12-(4-methylpiperazin-1-yl)dodecyl)-4-(trifluoromethyl)benzamide]: for the setting “compound 10 nM”, the inhibition at 0.01 µM is -0.14%. In addition, the inhibition at 0.1 µM (compound 100 nM) was determined as 6.37%. For the same compound, the inhibition at 1 µM (compound 1 μM) is 8.54%. Besides, for the setting “compound 10 μM”, the inhibition at 10 µM worked out at 100%. Moreover, where the note is “compound 30 μM”, the inhibition at 30 µM was 100%. Moreover, the inhibition at 50 µM (compound 50 μM) is 100%.
On to `CN1CCN(CCCCCCCCCCCCNC(=O)c2c(Cl)cncc2Cl)CC1` [Compound 201, 3,5-Dichloro-N-(12-(4-methylpiperazin-1-yl)dodecyl)isonicotinamide], for which the inhibition at 0.01 µM (compound 10 nM) came to 7.24%. In addition, the inhibition at 0.1 µM (compound 100 nM) amounted to 6.66%. Also, the inhibition at 1 µM (compound 1 μM) worked out at 8.54%. Moreover, the inhibition at 10 µM (compound 10 μM) worked out at 78.4%. In addition, the inhibition at 30 µM (compound 30 μM) came to 100%. In addition, the inhibition at 50 µM (compound 50 μM) was found to be 100%.
`Nc1ncccc1C(=O)NCCCN1CCOCC1` [Compound 78, 2-amino-N-(3-morpholin-4-yl-propyl)nicotinamide]: the inhibition at 0.01 µM (compound 10 nM) is -7.14%. For the setting “compound 100 nM”, the inhibition at 0.1 µM is -4.19%. The inhibition at 1 µM (compound 1 μM) is -3.73%. Where the note is “compound 10 μM”, the inhibition at 10 µM stood at 0.68%. The inhibition at 30 µM (compound 30 μM) was found to be 4.51%. Besides, the inhibition at 50 µM (compound 50 μM) worked out at 8.76%.
On to `CN1CCN(CCCCCCCCCCCCNC(=O)c2cccnc2O)CC1` [Compound 210, 2-Hydroxy-N-(12-(4-methylpiperazin-1-yl)dodecyl)nicotinamide], for which, under “compound 10 nM”, the inhibition at 0.01 µM is -4.34%. Besides, the inhibition at 0.1 µM (compound 100 nM) was -3.18%. Where the note is “compound 1 μM”, the inhibition at 1 µM turned out to be 2.75%. Also, the inhibition at 10 µM (compound 10 μM) turned out to be 42.8%. Besides, the inhibition at 30 µM (compound 30 μM) is 100%. For the same compound, the inhibition at 50 µM (compound 50 μM) worked out at 100%.
Turning to `Nc1ncccc1C(=O)NCCCCCCCCCCCCN1CCOC1=O` [Compound 127, 2-amino-N-(12-(2-oxooxazolidin-3-yl)dodecyl) nicotinamide], the “Proliferation inhibition rate (%)” value (compound 10 nM) is given as −2.24%; the “Proliferation inhibition rate (%)” value (compound 100 nM) was determined as 10.30%; the “Proliferation inhibition rate (%)” value (compound 1 μM) was 15.07%; the “Proliferation inhibition rate (%)” value (compound 10 μM) turned out to be 100.00%; the “Proliferation inhibition rate (%)” value (compound 30 μM) was found to be 100.00%; the “Proliferation inhibition rate (%)” value (compound 50 μM) came out at 100.00%.
As to `CN1CCN(CCCCCCCCCCCCNC(=O)c2ccncc2N)CC1` [Compound 209, 3-Amino-N-(12-(4-methylpiperazin-1-yl)dodecyl)isonicotinamide], under “compound 10 nM”, the inhibition at 0.01 µM is -1.45%. For the setting “compound 100 nM”, the inhibition at 0.1 µM was determined as 1.59%. Also, the inhibition at 1 µM (compound 1 μM) came out at 18.8%. For the same compound, for the setting “compound 10 μM”, the inhibition at 10 µM came to 84.5%. Besides, for the setting “compound 30 μM”, the inhibition at 30 µM is 100%. The inhibition at 50 µM (compound 50 μM) amounted to 100%.
With `CN1CCN(CCCCCCCCCCCCNC(=O)c2cnccc2N)CC1` [Compound 211, 4-Amino-N-(12-(4-methylpiperazin-1-yl)dodecyl)nicotinamide], the inhibition at 50 µM (compound 50 μM) was found to be 100%. For the same compound, the “Proliferation inhibition rate (%)” value runs as follows: (compound 10 nM, listed as KP-63, 0.01 µM) −2.17%; (compound 100 nM, listed as KP-63, 0.1 µM) −0.87%; (compound 1 μM, listed as KP-63, 1 µM) 9.70%; (compound 10 μM, listed as KP-63, 10 µM) 90.01%.
Take `CN1CCN(CCCCCCCCCCCCNC(=O)c2ccccc2C(=O)NC2CCCCC2)CC1` [Compound 191, N1-Cyclohexyl-N2-(12-(4-methylpiperazin-1-yl)dodecyl)phthalamide]: the inhibition at 0.01 µM (compound 10 nM) came out at 0%. For the same compound, the inhibition at 0.1 µM (compound 100 nM) was 0%. In addition, the inhibition at 1 µM (compound 1 μM) came out at 7.39%. Also, where the note is “compound 10 μM”, the inhibition at 10 µM worked out at 93.3%. In addition, the inhibition at 30 µM (compound 30 μM) turned out to be 100%. Under “compound 50 μM”, the inhibition at 50 µM came out at 100%.
Take `CCOc1cc(C(C)(C)C)ccc1C(=O)NCCCCCCCCCCCCN1CCN(C)CC1` [Compound 216, 4-(tert-butyl)-2-ethoxy-N-(12-(4-methylpiperazin-1-yl)dodecyl)benzamide]: the inhibition at 0.01 µM (compound 10 nM) was 2.03%. In addition, the inhibition at 0.1 µM (compound 100 nM) worked out at 2.32%. The inhibition at 1 µM (compound 1 μM) came out at 13%. For the same compound, the inhibition at 10 µM (compound 10 μM) was determined as 100%. Besides, where the note is “compound 30 μM”, the inhibition at 30 µM amounted to 100%. Moreover, where the note is “compound 50 μM”, the inhibition at 50 µM was determined as 100%.
